The record followed here is ChEMBL document CHEMBL5678818, “Discovery of potent SOS1 inhibitors that block RAS activation via disruption of the RAS-SOS1 interaction” (Proc Natl Acad Sci U S A, 2019).

In experiment [1] the target is Serine/threonine-protein kinase PLK3 (Homo sapiens) (UniProt Q9H4B4). Briefly: Inhibition of PLK3 (unknown origin) assessed as residual activity at 100 nM by KINOMEscan analysis relative to control.
Experiment [2] concerns the target T1, Son of sevenless homolog 1 (Homo sapiens) (UniProt Q07889).
T1 sequence (whole entry): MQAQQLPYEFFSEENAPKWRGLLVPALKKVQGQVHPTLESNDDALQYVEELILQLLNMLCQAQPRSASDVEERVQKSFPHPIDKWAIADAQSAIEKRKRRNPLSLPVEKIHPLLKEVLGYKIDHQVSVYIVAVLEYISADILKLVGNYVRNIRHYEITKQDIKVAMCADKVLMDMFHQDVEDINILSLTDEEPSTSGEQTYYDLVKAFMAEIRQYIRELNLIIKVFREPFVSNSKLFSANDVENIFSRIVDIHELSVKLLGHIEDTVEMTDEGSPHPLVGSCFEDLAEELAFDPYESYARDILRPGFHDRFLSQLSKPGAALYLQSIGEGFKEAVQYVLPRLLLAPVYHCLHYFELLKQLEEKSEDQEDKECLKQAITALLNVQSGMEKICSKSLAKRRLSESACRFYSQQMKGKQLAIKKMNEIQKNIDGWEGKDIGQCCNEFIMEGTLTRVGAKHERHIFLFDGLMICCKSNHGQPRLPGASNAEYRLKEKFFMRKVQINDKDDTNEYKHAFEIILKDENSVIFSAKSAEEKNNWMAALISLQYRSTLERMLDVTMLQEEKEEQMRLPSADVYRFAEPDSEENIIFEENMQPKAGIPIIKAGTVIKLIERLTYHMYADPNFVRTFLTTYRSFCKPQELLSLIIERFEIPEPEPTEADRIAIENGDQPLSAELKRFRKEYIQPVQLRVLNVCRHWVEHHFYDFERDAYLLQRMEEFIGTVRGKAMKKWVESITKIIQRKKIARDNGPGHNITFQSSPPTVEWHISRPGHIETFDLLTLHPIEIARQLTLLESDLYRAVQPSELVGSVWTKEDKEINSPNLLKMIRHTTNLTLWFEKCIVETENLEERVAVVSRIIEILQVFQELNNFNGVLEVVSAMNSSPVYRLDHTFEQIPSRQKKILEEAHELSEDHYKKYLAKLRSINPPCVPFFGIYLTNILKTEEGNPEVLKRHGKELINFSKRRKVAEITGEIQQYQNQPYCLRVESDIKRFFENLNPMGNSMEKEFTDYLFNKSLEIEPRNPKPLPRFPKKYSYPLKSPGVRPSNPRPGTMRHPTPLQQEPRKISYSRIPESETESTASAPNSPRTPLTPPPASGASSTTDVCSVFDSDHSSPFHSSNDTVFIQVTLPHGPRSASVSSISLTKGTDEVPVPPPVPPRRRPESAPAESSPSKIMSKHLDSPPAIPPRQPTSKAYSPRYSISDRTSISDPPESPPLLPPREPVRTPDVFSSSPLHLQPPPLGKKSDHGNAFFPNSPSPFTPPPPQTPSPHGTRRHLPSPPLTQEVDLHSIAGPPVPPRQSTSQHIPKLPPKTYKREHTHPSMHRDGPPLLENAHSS
Briefly: Inhibition of N-terminal His10-tagged wild-type recombinant human SOS1 catalytic domain (564 to 1049 residues) expressed in Escherichia coli assessed as reduction in KRAS G12C mutant activation at 10 uM by HTRF analysis relative to control.

Experiment [3] concerns the target T2, Dual specificity mitogen-activated protein kinase kinase 6 (Homo sapiens) (UniProt P52564).
T2 sequence (whole entry): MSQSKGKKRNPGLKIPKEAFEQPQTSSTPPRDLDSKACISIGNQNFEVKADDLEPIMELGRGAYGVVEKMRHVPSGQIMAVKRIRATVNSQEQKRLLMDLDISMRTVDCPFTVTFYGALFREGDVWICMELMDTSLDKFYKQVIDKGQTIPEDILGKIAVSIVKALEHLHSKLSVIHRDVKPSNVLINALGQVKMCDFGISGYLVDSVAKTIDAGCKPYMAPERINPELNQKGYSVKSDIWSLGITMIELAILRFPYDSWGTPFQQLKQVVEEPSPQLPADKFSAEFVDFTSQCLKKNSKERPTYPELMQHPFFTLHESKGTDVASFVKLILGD
Briefly: Inhibition of MEK6 (unknown origin) assessed as residual activity at 100 nM by KINOMEscan analysis relative to control.

Experiment [4] concerns the target Receptor tyrosine-protein kinase erbB-3 (Homo sapiens) (UniProt P21860). Briefly: Inhibition of ERBB3 (unknown origin) assessed as residual activity at 100 nM by KINOMEscan analysis relative to control.
Experiment [5] deals with T3, Serine/threonine-protein kinase 3 (Homo sapiens) (UniProt Q13188).
T3 sequence (whole entry): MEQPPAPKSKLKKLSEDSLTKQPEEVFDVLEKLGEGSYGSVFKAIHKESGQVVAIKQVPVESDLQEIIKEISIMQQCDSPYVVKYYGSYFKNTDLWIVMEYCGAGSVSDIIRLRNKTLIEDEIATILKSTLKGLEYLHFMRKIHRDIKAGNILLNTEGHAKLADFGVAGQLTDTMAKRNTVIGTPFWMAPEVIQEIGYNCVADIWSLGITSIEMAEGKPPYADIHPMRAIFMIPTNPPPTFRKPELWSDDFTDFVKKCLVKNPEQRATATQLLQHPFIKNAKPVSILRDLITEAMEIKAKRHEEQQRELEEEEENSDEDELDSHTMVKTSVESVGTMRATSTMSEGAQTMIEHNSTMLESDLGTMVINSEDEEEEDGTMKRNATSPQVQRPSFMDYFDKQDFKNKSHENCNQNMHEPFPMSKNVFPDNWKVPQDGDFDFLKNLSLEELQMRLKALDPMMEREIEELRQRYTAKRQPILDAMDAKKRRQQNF
Briefly: Inhibition of MST2 (unknown origin) assessed as residual activity at 100 nM by KINOMEscan analysis relative to control.

Sequence of Serine/threonine-protein kinase PLK3 (Homo sapiens) (Q9H4B4 whole entry, looked up): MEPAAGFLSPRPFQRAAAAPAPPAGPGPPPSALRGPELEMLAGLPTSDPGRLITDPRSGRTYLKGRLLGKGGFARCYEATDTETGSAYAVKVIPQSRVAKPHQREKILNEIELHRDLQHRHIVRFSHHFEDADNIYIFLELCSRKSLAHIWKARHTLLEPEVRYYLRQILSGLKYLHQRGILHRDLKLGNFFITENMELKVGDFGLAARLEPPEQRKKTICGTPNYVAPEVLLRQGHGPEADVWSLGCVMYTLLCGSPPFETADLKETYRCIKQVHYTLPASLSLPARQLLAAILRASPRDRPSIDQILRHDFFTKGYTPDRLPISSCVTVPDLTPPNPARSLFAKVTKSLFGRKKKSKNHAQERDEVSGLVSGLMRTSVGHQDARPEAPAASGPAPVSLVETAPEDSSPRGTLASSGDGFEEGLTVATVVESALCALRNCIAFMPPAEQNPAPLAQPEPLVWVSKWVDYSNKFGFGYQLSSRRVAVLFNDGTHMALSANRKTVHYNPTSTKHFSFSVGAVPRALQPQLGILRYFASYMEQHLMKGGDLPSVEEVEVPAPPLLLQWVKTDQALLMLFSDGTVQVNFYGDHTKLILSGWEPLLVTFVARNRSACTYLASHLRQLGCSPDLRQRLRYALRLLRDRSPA
Sequence of Receptor tyrosine-protein kinase erbB-3 (Homo sapiens) (P21860 whole entry): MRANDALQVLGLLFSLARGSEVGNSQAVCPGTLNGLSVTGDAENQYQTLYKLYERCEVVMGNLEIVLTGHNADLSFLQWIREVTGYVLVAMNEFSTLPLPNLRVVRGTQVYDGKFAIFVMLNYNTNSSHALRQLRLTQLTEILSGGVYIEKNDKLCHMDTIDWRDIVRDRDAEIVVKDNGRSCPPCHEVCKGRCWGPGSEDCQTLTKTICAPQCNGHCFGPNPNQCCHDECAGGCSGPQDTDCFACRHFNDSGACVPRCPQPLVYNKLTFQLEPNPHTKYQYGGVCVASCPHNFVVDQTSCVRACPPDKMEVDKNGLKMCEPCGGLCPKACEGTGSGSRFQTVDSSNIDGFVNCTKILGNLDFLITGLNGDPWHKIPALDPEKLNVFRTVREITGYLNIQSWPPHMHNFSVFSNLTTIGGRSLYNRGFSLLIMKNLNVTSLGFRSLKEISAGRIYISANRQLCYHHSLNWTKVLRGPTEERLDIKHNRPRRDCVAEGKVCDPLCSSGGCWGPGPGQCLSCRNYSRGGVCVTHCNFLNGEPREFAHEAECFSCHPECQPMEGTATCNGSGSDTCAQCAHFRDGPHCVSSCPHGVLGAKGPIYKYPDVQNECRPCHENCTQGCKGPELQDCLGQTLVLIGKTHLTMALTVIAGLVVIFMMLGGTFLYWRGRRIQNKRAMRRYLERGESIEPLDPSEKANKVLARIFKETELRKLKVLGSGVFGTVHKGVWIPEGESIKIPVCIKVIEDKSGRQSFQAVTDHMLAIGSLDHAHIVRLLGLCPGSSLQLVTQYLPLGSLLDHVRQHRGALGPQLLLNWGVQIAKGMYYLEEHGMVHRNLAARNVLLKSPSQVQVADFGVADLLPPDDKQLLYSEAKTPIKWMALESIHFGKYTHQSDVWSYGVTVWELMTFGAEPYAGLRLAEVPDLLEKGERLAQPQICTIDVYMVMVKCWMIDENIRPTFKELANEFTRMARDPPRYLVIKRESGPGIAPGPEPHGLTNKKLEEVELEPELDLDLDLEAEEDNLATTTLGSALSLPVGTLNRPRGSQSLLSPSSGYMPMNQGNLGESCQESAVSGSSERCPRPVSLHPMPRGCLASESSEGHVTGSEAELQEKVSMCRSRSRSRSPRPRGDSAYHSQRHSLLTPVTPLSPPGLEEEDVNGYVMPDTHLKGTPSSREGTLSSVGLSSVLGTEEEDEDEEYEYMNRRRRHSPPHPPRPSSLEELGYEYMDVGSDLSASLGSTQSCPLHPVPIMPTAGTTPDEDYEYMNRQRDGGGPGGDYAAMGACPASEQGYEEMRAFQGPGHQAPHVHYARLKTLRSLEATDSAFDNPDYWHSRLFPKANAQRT

Regarding `COc1cc2ncnc(N[C@H](C)c3cccc4ccccc34)c2cc1OC`, the Activity came out at 83% in experiment [1], 98% in experiment [3], 89% in experiment [4] and 92% in experiment [5]. For the same compound, in experiment [2], the inhibition – broadly, the relative decrease from the control value, in per cent – stood at 95%.
